This passage reports IC50 results from patent US7417053B2, “Pyrazolo[1,5-a]pyridine derivatives or pharmaceutically acceptable salts thereof” (Teijin Pharma Limited, priority 2005, dated 2008).

Structures can show the parent of a compound that is named as a salt.

Sequence of recombinant human MAPKAP-K2 (P49137 whole entry): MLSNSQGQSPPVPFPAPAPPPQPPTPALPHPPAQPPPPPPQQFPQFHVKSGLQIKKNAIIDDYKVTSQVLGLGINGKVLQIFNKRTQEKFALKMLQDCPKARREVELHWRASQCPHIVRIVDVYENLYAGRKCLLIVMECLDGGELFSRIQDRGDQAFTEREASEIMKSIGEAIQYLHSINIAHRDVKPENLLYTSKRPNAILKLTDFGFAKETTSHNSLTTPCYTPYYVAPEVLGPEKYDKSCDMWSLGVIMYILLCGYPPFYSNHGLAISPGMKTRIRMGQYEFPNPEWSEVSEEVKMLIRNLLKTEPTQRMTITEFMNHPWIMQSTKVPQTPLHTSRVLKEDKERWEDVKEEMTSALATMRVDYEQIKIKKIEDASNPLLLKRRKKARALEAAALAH

In this test the target is recombinant human MAPKAP-K2 (Homo sapiens, UniProt P49137). Nature of the test: Inhibitory activity against MAPKAP-K2 enzyme (33P-ATP peptide phosphorylation). The format is biochemical. As to conditions: recombinant human MAPKAP-K2, ATP 20 μmol/L solution, room temperature 30 min; read-out: Activity Strength (MAPKAP-K2 IC50 value). The procedure:
General Measurement Method for Determining the Inhibitory Activity Against MAPKAP-K2 enzyme
(Preparation of Solutions of Compounds)
Each compound was dissolved in DMSO to prepare a solution with a concentration of 20 mmol/L and this solution was stored at −20° C. This stock solution was diluted with DMSO successively to prepare solutions with 200-fold concentrations of a necessary range. These solutions were further diluted with water at a ratio of 1:20 to prepare solutions with 10-fold concentrations of a necessary range. Each of these solutions (5 μL) was used for each reaction in 50 μL-scale. Through the dilution series of all compounds, the final DMSO concentration was kept at 0.5%. Conventional tests for the compounds were carried out at a final concentration range from 100 μmol/L to 0.03 μmol/L. but in some cases, tests were carried out at lower concentrations, depending on activity.
(Measurements of MAPKAP-K2 Enzyme Activities)
To a 5% DMSO aqueous solution (5 μL) of a test compound, a solution (25 μL) containing a peptide substrate [peptide substrate 60 μmol/L, ATP 20 μmol/L, Tris buffer 60 mmol/L (pH 7.5), EGTA 0.2 mmol/L, β-mercaptoethanol 0.2%, magnesium acetate 20 mmol/L, [γ-33P]ATP 0.1 μCi (specific radioactivity ca. 110 TBq/mmol)] was added. The reaction was initiated by adding a solution (20 μL) containing MAPKAP-K2 enzyme [recombinant human MAPKAP-K2 10 mU, Tris buffer […] (pH 7.5), EGTA 0.1 mmol/L, β-mercaptoethanol 0.1%, BSA 0.1%]. After the reaction was carried out at room temperature for 30 min, 200 mmol/L phosphoric acid (50 μL) was added to quench the reaction, and 90 μL of the reaction mixture was adsorbed on a multiscreen PH plate (Millipore). The plate was washed with 100 mmol/L phosphoric acid. After the plate was dried, 30 μL of MicroScint-O (Perkin-Elmer) was added, and the count per minute was measured on a scintillation counter to determine the inhibitory activity. The peptide substrate was Lys-Lys-Leu-Asn-Arg-Thr-Leu-Ser-Val-Ala.
• % Reference=(X−B)/(Tot−B)×100 • % Inhibition=100−% Reference • X represents count per minute of the well with a test compound applied. • B represents count per minute of the well without the enzyme. • Tot represents count per minute of the well with only DMSO solvent and no test compound applied. (Calculation of MAPKAP-K2 Inhibitory Activity) • IC50 value represents a concentration of compound at which 50% inhibition is observed.
In general, IC50 refers to the concentration that gives 50% inhibition. In the case of `CCOc1ccc(Nc2c(C)c(NCC3CCCCN3)c(C#N)c3ccnn23)cc1` (centres unmarked) [Compound 119, 7-[(4-Ethoxyphenyl)amino]-6-methyl-5-[(2-piperidylmethyl)amino]pylrazolo[1,5-a]pyridine-4-carbonitrile trifluoroacetate salt], the IC50 was 1000 to 10000 nM.

In the case of `CCOc1ccc(Nc2c(C)c(NCCCNC3CCCCC3)c(C#N)c3ccnn23)cc1` [Compound 120, 5-{[3-(Cyclohexylamino)propyl]amino}-7-[(4-ethoxyphenyl)amino]-6-methylpyrazolo[1,5-a]pyridine-4-carbonitrile trifluoroacetate salt], the IC50 was in the range of 1000 to 10000 nM.

For the compound `Cc1c(N[C@H]2CCCNC2)c(C#N)c2ccnn2c1Nc1ccccc1` [Compound 111, 5-[((3S)-(3-Piperidyl))amino]-6-methyl-7-(phenylamino)pyrazolo[1,5-a]pyridine-4-carbonitrile trifluoroacetate salt], the IC50 was less than 200 nM.

As for `CCOc1ccc(Nc2c(C)c(N[C@H]3CC[C@H](NCC(C)C)CC3)c(C#N)c3ccnn23)cc1` [Compound 110, 7-[(4-Ethoxyphenyl)amino]-6-methyl-5-(trans-{4-[(2-methylpropyl)amino]cyclohexyl}amino)pyrazolo[1,5-a]pyridine-4-carbonitrile trifluoroacetate salt], the IC50 is less than 200 nM. For `Cc1nc2ccc(Nc3cc(N[C@H]4CC[C@H](N)CC4)c(C#N)c4ccnn34)cc2s1` [Compound 96, 5-(trans-4-Aminocyclohexylamino)-7-(2-methylbenzothiazol-6-ylamino)pyrazolo[1,5-a]pyridine-4-carbonitrile trifluoroacetate salt], the 50% inhibitory concentration (IC50) was 200 to 1000 nM. As to `C=CCc1c(N[C@H]2CCCNC2)c(C#N)c2ccnn2c1Nc1ccc(OCC)cc1` [Compound 86, 5-[(3S)-3-Piperidylamino]-7-(4-ethoxyphenylamino)-6-(2-propenyl)pyrazolo[1,5-a]pyridine-4-carbonitrile trifluoroacetate salt], the half-inhibitory concentration (IC50) was less than 200 nM. The figure for `CCOc1ccc(Nc2c(CC)c(N[C@H]3CC[C@H](N)CC3)c(C#N)c3ccnn23)cc1` [Compound 109, 5-(trans-4-Aminocyclohexylamino)-7-(4-ethoxyphenylamino)-6-ethylpyrazolo[1,5-a]pyridine-4-carbonitrile] is less than 200 nM. Turning to `CCOc1ccc(Nc2c(C)c(N[C@H]3CCCNC3)c(C#N)c3ccnn23)cc1` [Compound 85, 5-[(3S)-3-piperidylamino]-7-(4-ethoxyphenylamino)-6-methylpyrazolo[1,5-a]pyridine-4-carbonitrile], the IC50 was less than 200 nM. Consider `CCOc1ccc(Nc2c(C)c(N[C@H]3CC[C@H](NCC4CCCCC4)CC3)c(C#N)c3ccnn23)cc1` [Compound 126, 5-({4-[(Cyclohexylmethyl)amino]cyclohexyl}amino)-7-[(4-ethoxyphenyl)amino]-6-methylpyrazolo[1,5-a]pyridine-4-carbonitrile trifluoroacetate salt], for which the IC50 lay in the range of 200 to 1000 nM. As to `CCCc1c(N[C@H]2CC[C@H](N)CC2)c(C#N)c2ccnn2c1Nc1ccc(OCC)cc1` [Compound 122, 5-(trans-4-Aminocyclohexylamino)-7-(4-ethoxyphenylamino)-6-propylpyrazolo[1,5-a]pyridine-4-carbonitrile], the IC50 is less than 200 nM.

Regarding `COCCOc1ccc(Nc2c(C)c(N[C@H]3CCNC3)c(C#N)c3ccnn23)cc1` [Compound 88, 5-[(3S)-3-Pyrrolidylamino]-7-[4-(2-methoxyethoxy)phenylamino]-6-methylpyrazolo[1,5-a]pyridine-4-carbonitrile trifluoroacetate salt], the IC50 was in the range of 200 to 1000 nM. Turning to `CCOc1ccc(Nc2c(C)c(NCCN)c(C#N)c3ccnn23)cc1` [Compound 106, 5-[(2-Aminoethyl)amino]-7-[(4-ethoxyphenyl)amino]-6-methylpyrazolo[1,5-a]pyridine-4-carbonitrile trifluoroacetate salt], the IC50 was 200 to 1000 nM. `CCOc1ccc(Nc2c(C)c(N[C@H]3CCCC[C@@H]3N)c(C#N)c3ccnn23)cc1` (relative stereo) [Compound 101, 5-[(trans-2-Aminocyclohexyl)amino]-7-(4-ethoxyphenylamino)-6-methylpyrazolo[1,5-a]pyridine-4-carbonitrile trifluoroacetate salt]: the IC50 is 10000 to 100000 nM. The figure for `CCOc1ccc(Nc2c(C)c(NC3CCNCC3)c(C#N)c3ccnn23)cc1` [Compound 103, 7-(4-Ethoxyphenylamino)-6-methyl-5-(4-pyperidylamino)pyrazolo[1,5-a]pyridine-4-carbonitrile trifluoroacetate salt] is 200 to 1000 nM. For the compound `COCCOc1ccc(Nc2c(C)c(N[C@H]3CCCNC3)c(C#N)c3ccnn23)cc1` [Compound 87, 5-[(3S)-3-Piperidylamino]-7-[4-(2-methoxyethoxy)phenylamino]-6-methylpyrazolo[1,5-a]pyridine-4-carbonitrile trifluoroacetate salt], the IC50 was less than 200 nM. Take `CCOc1ccc(Nc2c(CCO)c(N[C@H]3CCCNC3)c(C#N)c3ccnn23)cc1` [Compound 90, 5-[(3S)-3-Piperidylamino]-7-(4-ethoxyphenylamino)-6-(2-hydroxyethyl)pyrazolo[1,5-a]pyridine-4-carbonitrile]: the concentration for half-maximal inhibition (IC50) was less than 200 nM. On to `CCOc1ccc(Nc2c(C3CC3)c(N[C@H]3CC[C@H](N)CC3)c(C#N)c3ccnn23)cc1` [Compound 131, 5-(trans-4-Amionocyclohexylamino)-7-(4-ethoxyphenylamino)-6-cyclopropylpyrazolo[1,5-a]pyridine-4-carbonitrile], for which the concentration for half-maximal inhibition (IC50) was less than 200 nM. As to `CCOc1ccc(Nc2c(C)c(NCCC3CCCN3)c(C#N)c3ccnn23)cc1` (centres unmarked) [Compound 129, 7-[1(4-Ethoxyphenyl)amino]-6-methyl-5-[2-(pyrrolidin-2-ylethyl)amino]pyrazolo[1,5-a]pyridine-4-carbonitrile trifluoroacetate salt], the IC50 lay within 1000 to 10000 nM. For `CCOc1ccc(Nc2c(CC)c(N[C@H]3CCCNC3)c(C#N)c3ccnn23)cc1` [Compound 105, 5-[(3S)-3-Piperidylamino]-7-(4-ethoxyphenylamino)-6-ethylpyrazolo [1,5-a]pyridine-4-carbonitrile], the IC50 was less than 200 nM. Next, `N#Cc1c(N[C@H]2CCCNC2)cc(Nc2ccccc2Cl)n2nccc12` [Compound 93, 5-[(3S)-3-Piperidylamino]-7-(2-chlorophenylamino)pyrazolo[1,5-a]pyridine-4-carbonitrile trifluoroacetate salt]: 200 to 1000 nM; `CCOc1ccc(Nc2c(-c3ccccc3)c(NC3CCCNC3)c(C#N)c3ccnn23)cc1` (centres unmarked) [Compound 95, 5-(3-Piperidylamino)-7-(4-ethoxyphenylamino)-6-phenylpyrazolo[1,5-a]pyridine-4-carbonitrile trifluoroacetate salt]: 200 to 1000 nM; `CCOc1ccc(Nc2c(C(C)C)c(N[C@H]3CCCNC3)c(C#N)c3ccnn23)cc1` [Compound 123, 5-[(3S)-3-Piperidylamino]-7-(4-ethoxyphenylamino)-6-(methylethyl)pyrazolo[1,5-a]pyridine-4-carbonitrile]: less than 200 nM.

As to `CCOc1ccc(Nc2c(C)c(NCC3CCCN3)c(C#N)c3ccnn23)cc1` (centres unmarked) [Compound 114, 7-[(4-Ethoxyphenyl)amino]-6-methyl-5-[(pyrrolidin-2-ylmethyl)amino]pyrazolo[1,5-a]pyridine-4-carbonitrile trifluoroacetate salt], the IC50 lay in the range of 1000 to 10000 nM. Next, `Cc1nc2ccc(Nc3c(C)c(N[C@H]4CCCNC4)c(C#N)c4ccnn34)cc2s1` [Compound 91, 5-[(3S)-3-Piperidylamino]-7-(2-methylbenzothiazol-6-ylamino)-6-methylpyrazolo[1,5-a]pyridine-4-carbonitrile]: less than 200 nM; `CCOc1ccc(Nc2c(C)c(N[C@H]3CC[C@H](NCCCc4ccccc4)CC3)c(C#N)c3ccnn23)cc1` [Compound 116, 7-[(4-Ethoxyphenyl)amino]-6-methyl-5-({trans-4-[(3-phenylpropyl)amino]cyclohexyl}amino)pyrazolo[1,5-a]pyridine-4-carbonitrile trifluoroacetate salt]: 200 to 1000 nM.

For the compound `CCOc1ccc(Nc2c(C)c(N[C@H]3CC[C@H](NCc4ccccc4)CC3)c(C#N)c3ccnn23)cc1` [Compound 115, 7-[(4-Ethoxyphenyl)amino]-6-methyl-5-[trans-{4-(benzylamino)cyclohexyl]amino}pyrazolo[1,5-a]pyridine-4-carbonitrile trifluoroacetate salt], the IC50 fell in the range of 200 to 1000 nM.
